Patent US20070128217A1 (priority 2003, published 2007)

Experiments:
[1] = test system: antibodies in sera from SARS patients (sera 1a, 1b, 2, 6, 37, 62, London, SARS-yellow, SARS-green); format: binding, human; parameters: Binding of serum 6 to linear peptides of protein X1 of SARS-CoV Urbani / Binding of serum 37 to linear peptides of protein X1 of SARS-CoV Urbani / Binding of serum 6 to looped/cyclic peptide (PEPSCAN-ELISA) / Binding of serum 37 to looped/cyclic peptide (PEPSCAN-ELISA) / Binding of serum 37 to looped/cyclic peptides of protein X1 of SARS-CoV Urbani / Binding of serum 6 to linear peptides of protein X2 / Binding of serum 37 to linear peptides of protein X2 / Binding of serum 37 to looped/cyclic peptides of protein X2 of SARS-CoV Urbani / Binding of serum 6 to linear peptides of protein M of SARS-CoV Urbani / Binding of serum 37 to linear peptides of protein M of SARS-CoV Urbani / Binding of serum 6 to looped/cyclic peptides of protein M of SARS-CoV Urbani / Binding of serum 37 to looped/cyclic peptides of protein M of SARS-CoV Urbani / Binding of serum 6 to linear peptides of protein X3 of SARS-CoV Urbani / Binding of serum 37 to linear peptides of protein X3 of SARS-CoV Urbani / Binding of serum 37 to looped/cyclic peptides of protein X3 of SARS-CoV Urbani / Binding of serum 6 to linear peptides of protein X4 of SARS-CoV Urbani / Binding of serum 37 to linear peptides of protein X4 of SARS-CoV Urbani / Binding of serum 37 to looped/cyclic peptides of protein X4 of SARS-CoV Urbani / Binding of serum 6 to linear peptides of protein X5 of SARS-CoV Urbani / Binding of serum 37 to linear peptides of protein X5 of SARS-CoV Urbani / Binding of serum 37 to looped/cyclic peptides of protein X5 of SARS-CoV Urbani / Binding of serum 6 to linear peptides of protein N of SARS-CoV Urbani / Binding of serum 37 to linear peptides of protein N of SARS-CoV Urbani / Binding of serum 6 to linear peptide (PEPSCAN-ELISA) / Binding of serum 1a to looped/cyclic peptides of protein N of SARS-CoV Urbani / Binding of serum 1b to looped/cyclic peptides of protein N of SARS-CoV Urbani / Binding of serum 2 to looped/cyclic peptides of protein N of SARS-CoV Urbani / Binding of serum 6 to looped/cyclic peptides of protein N of SARS-CoV Urbani / Binding of serum 37 to looped/cyclic peptides of protein N of SARS-CoV Urbani / Binding of serum 62 to looped/cyclic peptides of protein N of SARS-CoV Urbani / Binding of serum London to looped/cyclic peptides of protein N of SARS-CoV Urbani / Binding of serum SARS-green to looped/cyclic peptides of protein N of SARS-CoV Urbani: unit not given here
[2] = test system: control sera (pooled serum of ten healthy LUMC hospital workers; commercial negative donor pooled serum from the Dutch bloodbank); format: binding, human; parameters: Binding of Control serum LUMC to linear peptides / Binding of Control serum Blood-bank to linear peptides / Binding of Control serum LUMC to looped peptides / Binding of Control Serum Blood-Bank to Looped peptides / Binding of Control serum LUMC to linear peptides of the protein M of SARS-CoV Urbani / Binding of Control serum Blood-bank to linear peptides of the protein M of SARS-CoV Urbani / Binding of Control serum LUMC to looped peptides of the protein M of SARS-CoV Urbani / Binding of Control Serum Blood-Bank to Looped peptides of the protein M of SARS-CoV Urbani: unit not given here
[3] = test system: rabbit serum obtained by immunizing a rabbit with the SARS-CoV strain Frankfurt 1; format: binding; parameters: Binding of a rabbit serum to linear peptides / Binding of a rabbit serum to looped peptides / Rabbit serum linear peptides / Rabbit serum looped peptides / Binding of a rabbit serum to linear peptides of protein N of SARS-CoV Urbani (Rabbit serum linear peptides) / Binding of a rabbit serum to looped/cyclic peptides of protein N of SARS-CoV Urbani (Rabbit serum looped peptides): unit not given here

YMAISPKFTTSLSLH
0.3: Binding of a rabbit serum to linear peptides [3]
0.4: Binding of serum 2 to linear peptides of protein X2 [1] | Binding of serum 2 to looped/cyclic peptides of protein X2 of SARS-CoV Urbani [1] | Binding of serum 6 to linear peptides of protein X2 [1] | Binding of serum London to linear peptides of protein X2 [1] | Binding of serum London to looped/cyclic peptides of protein X2 of SARS-CoV Urbani [1] | Binding of serum SARS-green to looped/cyclic peptides of protein X2 of SARS-CoV Urbani [1] | Binding of serum SARS-yellow to looped/cyclic peptides of protein X2 of SARS-CoV Urbani [1] | Binding of Control serum LUMC to linear peptides [2]
0.5: Binding of serum 6 to looped/cyclic peptides of protein X2 of SARS-CoV Urbani [1] | Binding of serum 37 to looped/cyclic peptides of protein X2 of SARS-CoV Urbani [1] | Binding of serum SARS-green to linear peptides of protein X2 [1] | Binding of a rabbit serum to looped peptides [3]
0.6: Binding of serum 1a to looped/cyclic peptides of protein X2 of SARS-CoV Urbani [1] | Binding of serum 1b to linear peptides of protein X2 [1] | Binding of serum 1b to looped/cyclic peptides of protein X2 of SARS-CoV Urbani [1] | Binding of serum 37 to linear peptides of protein X2 [1] | Binding of serum 62 to linear peptides of protein X2 [1] | Binding of serum 62 to looped/cyclic peptides of protein X2 of SARS-CoV Urbani [1] | Binding of serum SARS-yellow to linear peptides of protein X2 [1]
0.7: Binding of serum 1a to linear peptides of protein X2 [1] | Binding of Control Serum Blood-Bank to Looped peptides [2] | Binding of Control serum Blood-bank to linear peptides [2] | Binding of Control serum LUMC to looped peptides [2]

YNRYRIGNYKLNTDH
1.1: Binding of serum 6 to looped/cyclic peptides of protein M of SARS-CoV Urbani [1]
0.8: Binding of serum 1a to looped/cyclic peptides of protein M of SARS-CoV Urbani [1] | Binding of Control Serum Blood-Bank to Looped peptides of the protein M of SARS-CoV Urbani [2]
0.1: Binding of serum SARS-yellow to linear peptides of protein M of SARS-CoV Urbani [1]
0.9: Binding of Control serum LUMC to looped peptides of the protein M of SARS-CoV Urbani [2]
0.3: Binding of serum SARS-green to looped/cyclic peptides of protein M of SARS-CoV Urbani [1] | Rabbit serum linear peptides [3]
0.7: Binding of serum 1a to linear peptides of protein M of SARS-CoV Urbani [1] | Binding of serum 1b to looped/cyclic peptides of protein M of SARS-CoV Urbani [1] | Binding of serum 2 to looped/cyclic peptides of protein M of SARS-CoV Urbani [1] | Binding of serum SARS-yellow to looped/cyclic peptides of protein M of SARS-CoV Urbani [1]
0.5: Binding of serum 6 to linear peptides of protein M of SARS-CoV Urbani [1] | Binding of serum 37 to linear peptides of protein M of SARS-CoV Urbani [1] | Binding of serum 37 to looped/cyclic peptides of protein M of SARS-CoV Urbani [1] | Binding of serum London to linear peptides of protein M of SARS-CoV Urbani [1] | Binding of Control serum Blood-bank to linear peptides of the protein M of SARS-CoV Urbani [2] | Rabbit serum looped peptides [3]
0.6: Binding of serum 1b to linear peptides of protein M of SARS-CoV Urbani [1] | Binding of serum 62 to looped/cyclic peptides of protein M of SARS-CoV Urbani [1] | Binding of serum London to looped/cyclic peptides of protein M of SARS-CoV Urbani [1] | Binding of Control serum LUMC to linear peptides of the protein M of SARS-CoV Urbani [2]
0.4: Binding of serum 2 to linear peptides of protein M of SARS-CoV Urbani [1] | Binding of serum 62 to linear peptides of protein M of SARS-CoV Urbani [1] | Binding of serum SARS-green to linear peptides of protein M of SARS-CoV Urbani [1]

YNSVTDTIVVTEGDG
0.3: Binding of serum 1b to looped/cyclic peptides of protein X1 of SARS-CoV Urbani [1] | Binding of serum 62 to looped/cyclic peptides of protein X1 of SARS-CoV Urbani [1] | Binding of serum SARS-green to linear peptides of protein X1 of SARS-CoV Urbani [1] | Binding of serum SARS-green to looped/cyclic peptides of protein X1 of SARS-CoV Urbani [1] | Binding of serum SARS-yellow to looped/cyclic peptides of protein X1 of SARS-CoV Urbani [1] | Binding of Control Serum Blood-Bank to Looped peptides [2]
0.4: Binding of serum 1a to looped/cyclic peptides of protein X1 of SARS-CoV Urbani [1] | Binding of serum 2 to linear peptides of protein X1 of SARS-CoV Urbani [1] | Binding of serum 6 to linear peptides of protein X1 of SARS-CoV Urbani [1] | Binding of serum 37 to looped/cyclic peptides of protein X1 of SARS-CoV Urbani [1] | Binding of serum SARS-yellow to linear peptides of protein X1 of SARS-CoV Urbani [1] | Binding of Control serum Blood-bank to linear peptides [2] | Binding of Control serum LUMC to linear peptides [2] | Binding of Control serum LUMC to looped peptides [2]
0.5: Binding of serum 1b to linear peptides of protein X1 of SARS-CoV Urbani [1] | Binding of serum 37 to linear peptides of protein X1 of SARS-CoV Urbani [1] | Binding of serum 62 to linear peptides of protein X1 of SARS-CoV Urbani [1] | Binding of a rabbit serum to looped peptides [3]
0.6: Binding of serum 1a to linear peptides of protein X1 of SARS-CoV Urbani [1]
0.2: Binding of serum 2 to looped/cyclic peptides of protein X1 of SARS-CoV Urbani [1] | Binding of serum 6 to looped/cyclic peptides of protein X1 of SARS-CoV Urbani [1] | Binding of serum London to linear peptides of protein X1 of SARS-CoV Urbani [1] | Binding of serum London to looped/cyclic peptides of protein X1 of SARS-CoV Urbani [1]
0.1: Binding of a rabbit serum to linear peptides [3]
